Legend:
Assay type in all cases: in vivo
[1] = tested on: spring wheat, TRZAS Triso; assay: Safener seed treatment, post-emergence herbicide application, crop damage; settings: for HER effect + SAF [%]: cloquintocet-mexyl 0, 5 g a.i./kg seed; for HER effect [%]: without safener
Text: (§1) For safener seed treatment trials, sufficient seed amounts of the respective crops (spring wheat (TRZAS); spring barley (HORVS)) were weighed into screw cap glass bottles with a minimum volume trice of the seeds.
(§2) As a first step, specified safeners formulated as wettable powder (WP) or wettable granules (WG) were weighed out for the required dosages (g a.i./kg seed), corresponding to the seed amounts. The safener amounts were mixed with a coloured slurry blind formulation type, pre-diluted with milk at 3.5% fat rate (25 mgs slurry formulation plus 2 ml milk per 10 grams of seed). A tube roller was used for coating. The solutions were gradually pipetted each on the rotating seeds followed by coating for min. 3 hours until all liquid had been soaked up by the seeds. Thereafter, the coated seeds were put flat on open trays for drying over night at room temperature.
(§3) Treated seeds were then placed into pots (7 cm diameter) on the surface of sandy loam, pressed down, flat covered with additional soil and finally covered with sandy soil, also pressed down, watered, and kept under good growth conditions in a greenhouse, until the plants had reached 2-leaf-stage (BBCH 12).
(§4) At that stage, post-emergence application of the specified herbicides was done on: • a) pot sets containing plants with safener-coated seeds as described above, • b) as a reference, pot sets of plants without seed treatment.
(§5) The herbicides were formulated as wettable powder (WP). Equivalent to the spray area, compound amounts were weighed out and diluted related to the water application rate (300 l/ha) to an aqueous suspension plus additive (1 l/ha MERO). Dosage related equivalents were conventionally sprayed on trays with the potted plants.
(§6) After application, the test plants were kept under good growth conditions in a greenhouse. Assessment timings were 10 and 21 days after treatment (DAT) with the herbicide, by visual scoring of the crop damage in % (comparison of untreated with treated plants, either sprayed only with herbicide or with herbicide on plants with treated seeds).
(§7) Reduction [Difference]=herbicide damage without safener−herbicide damage with safener
(§8) Reduction [%]=(Reduction [Difference]*100)/herbicide damage without safener
(§9) b) Plant Species, Variety: TRZAS Triso, Safener (SAF): Cloquintocet-Mexyl

[2] = tested on: spring wheat, TRZAS Triso; assay: Tank-mix post-emergence crop damage, herbicide with and without safener cloquintocet-mexyl, greenhouse; set-up: key to Reduction [Difference]: percentage points of damage: damage without safener minus damage with safener
Protocol: (§10) Seeds of crops (spring wheat, TRZAS; spring barley, HORVS; maize, ZEAMA) were placed in sandy loam soil in peat pots, covered with soil and cultivated in a greenhouse under good growth conditions. Two to three weeks after sowing, the test plants were treated at the 1 to 3-leaf stage. The herbicide/safener active compound combinations according to the invention, formulated as wettable powders or emulsion concentrates, and, in parallel tests, the correspondingly formulated individual active compounds were sprayed onto the green parts of the plants in various dosages using an amount of water of 300 l/ha (converted).
(§11) The pots were returned under good growing conditions in a glasshouse and a visual assessment of herbicidal effects was made at intervals from 1 to 3 weeks after herbicide application (DAT=days after treatment). Assessment was on a percentage basis in comparison with untreated control plants (0%=no injury, 100%=complete kill).
as §7, §8, §9

[3] = tested on: spring barley, HORVS Montoya; assay: as above; set-up: key to Reduction [Difference]: damage without safener − damage with safener, % points (0–100% scale); settings: cloquintocet-mexyl 100 g a.i./ha
Protocol: as §10, §11, §7, §8
(§12) a) Plant Species, Variety: HORVS Montoya, Safener (SAF): Cloquintocet-Mexyl

[4] = tested on: spring barley, HORVS Montoya; assay: Safener seed treatment, post-emergence herbicide application, crop damage; set-up: key to Reduction [Difference]: % crop damage without safener minus % damage with safener; settings: cloquintocet-mexyl 0, 5 g a.i./kg seed
Text: as §1, §2, §3, §4, §5, §6, §7, §8, §12

[5] = tested on: spring wheat, TRZAS Triso; assay: Safener seed treatment, pre-emergence herbicide application, crop damage; settings: cloquintocet-mexyl 0.25 g a.i./kg seed
Protocol: (§13) For the safener seed treatment, sufficient seeds of the respective crops (spring wheat, TRZAS; spring barley, HORVS; maize, ZEAMA) were weighed into screw top glass bottles approximately twice the volume of the seeds.
(§14) The specified safeners, formulated as wettable powder (WP) were weighed out so that the specified rates (g a.i./kg seed) would be obtained, dissolved in water (1 ml water per 10 g of seeds), and added to the seeds to produce a slurry.
(§15) The bottles were capped and then placed in an overhead shaker (set at medium speed for ca. 60 minutes) so that the seeds were evenly coated with the slurry. The bottles were uncapped and the seeds were either placed on paper and dried for an interval of 3-4 hours prior to sowing, or directly sown. Seeds were placed in sandy loam soil in pots of a diameter of 7-8 cm, and covered with soil.
Pre-emergence application of the specified herbicides was done subsequently, on two sets of plants: • a) seed treatment with safener, as described above • b) no safener treatment
The herbicides were formulated as WP and was sprayed onto the soil surface as an aqueous suspension at an equivalent water application rate of 300 l/ha.
After application, the test plants were kept in the greenhouse under good growth conditions. At intervals up to 4 weeks after application (=28 days after treatment; DAT), % crop damage observed on the treated plants was scored visually in comparison to control plants that had not received any safener or herbicide treatment.
Values in the table below are mean values of at least 2 replicates.
as §7, §8
a) Plant Species, Variety: TRZAS Triso, Safener (SAF): Cloquintocet-Mexyl

[6] = tested on: spring barley, HORVS Montoya; assay: as above; settings: 21 (Final) DAT; HER dose 15 g a.i./ha; cloquintocet-mexyl 0.25 g a.i./kg seed
Protocol: as §13, §14, §15
Pre-emergence application of the specified herbicides was done subsequently, on two sets of plants: • a) seed treatment with safener, as described above • b) no safener treatment […]
After application, the test plants were kept in the greenhouse under good growth conditions. At intervals up to 4 weeks after application (=28 days after treatment; DAT), % crop damage observed on the treated plants was scored visually in comparison to control plants that had not received any safener or herbicide treatment. […]

[7] = 10 DAT, HER dose 8 g a.i./ha, cloquintocet-mexyl 50 g a.i./ha
[8] = 11 (Interim) DAT, HER dose 15 g a.i./ha
[9] = 21 (Final) DAT, HER dose 15 g a.i./ha
[10] = 21 DAT, HER dose 8 g a.i./ha, cloquintocet-mexyl 50 g a.i./ha

COCCOC(=O)C1C=CC(NC(=O)C2(C(F)(F)F)CC(c3cc(F)cc(C#N)c3)=NO2)C1 (centres unmarked) [Example 1.2]
HER effect + SAF [%] ([1]; 10 DAT, HER dose 8 g a.i./ha): 0%
HER effect [%] ([1]; 10 DAT, HER dose 8 g a.i./ha): 90%
HER effect + SAF [%] ([1]; 10 DAT, HER dose 32 g a.i./ha): 10%
HER effect [%] ([1]; 10 DAT, HER dose 32 g a.i./ha): 90%
HER effect + SAF [2, 7]: 70%
Reduction [%] [2, 7]: 22%
HER effect + SAF ([3]; 10 DAT, HER dose 8 g a.i./ha): 10%
HER effect + SAF ([4]; 10 DAT, HER dose 8 g a.i./ha): 10%

C=CC1(C(=O)NC2COC(C(=O)OC)C2)CC(c2cc(F)cc(F)c2)=NO1 (mixture of isomers) [Example 1.68]
HER effect + SAF [%] ([1]; 21 DAT, HER dose 1 g a.i./ha): 20%
HER effect [%] ([1]; 21 DAT, HER dose 1 g a.i./ha): 80%
HER effect + SAF [%] ([1]; 21 DAT, HER dose 4 g a.i./ha): 30%
HER effect [%] ([1]; 21 DAT, HER dose 4 g a.i./ha): 85%
Reduction [Difference] ([5]; 11 (Interim) DAT, HER dose 5 g a.i./ha): 45
Reduction [%] [5, 8]: 88%
Reduction [Difference] [5, 8]: 70
Reduction [Difference] ([5]; 21 (Final) DAT, HER dose 5 g a.i./ha): 45
Reduction [%] [5, 9]: 94%
Reduction [Difference] [5, 9]: 80
Reduction [Difference] [6]: 80

COC(=O)C1C=CC(NC(=O)C2(C)CC(c3cccc(F)c3)=NO2)C1 (centres unmarked) [Example 1.20]
HER effect + SAF [%] ([1]; 10 DAT, HER dose 8 g a.i./ha): 0%
HER effect [%] ([1]; 10 DAT, HER dose 8 g a.i./ha): 20%
HER effect + SAF [%] ([1]; 10 DAT, HER dose 32 g a.i./ha): 0%
HER effect [%] ([1]; 10 DAT, HER dose 32 g a.i./ha): 50%
Reduction [%] ([2]; 10 DAT, HER dose 32 g a.i./ha, cloquintocet-mexyl 100 g a.i./ha): 80%
Reduction [%] ([3]; 21 DAT, HER dose 32 g a.i./ha): 88%
Reduction [Difference] ([3]; 21 DAT, HER dose 32 g a.i./ha): 70
Reduction [%] ([4]; 21 DAT, HER dose 32 g a.i./ha): 88%
Reduction [Difference] ([4]; 21 DAT, HER dose 32 g a.i./ha): 70

C=CC1(C(=O)NC2CC=C(C(=O)OC)C2)CC(c2cc(F)cc(F)c2)=NO1 (mixture of isomers) [Example 1.60]
HER effect + SAF [%] ([1]; 21 DAT, HER dose 8 g a.i./ha): 10%
HER effect [%] ([1]; 21 DAT, HER dose 8 g a.i./ha): 93%
HER effect + SAF [%] ([1]; 21 DAT, HER dose 32 g a.i./ha): 10%
HER effect [%] ([1]; 21 DAT, HER dose 32 g a.i./ha): 95%
HER effect + SAF [2, 10]: 70%
Reduction [%] [2, 10]: 25%
Reduction [Difference] [2, 10]: 23
HER effect ([2]; 21 DAT, HER dose 8 g a.i./ha, without safener): 93%
HER effect + SAF ([3]; 21 DAT, HER dose 8 g a.i./ha): 0%
Reduction [Difference] ([3]; 21 DAT, HER dose 8 g a.i./ha): 80

From patent publication US20230276792A1, “SELECTIVE HERBICIDES BASED ON SUBSTITUTED ISOXAZOLIN CARBOXAMIDES AND CLOQUINTOCET-MEXYL” (Bayer Aktiengesellschaft, priority 2020, published 2023)
